Reference: PubChem BioAssay (NCI)
Values joined by “and” are separate entries in the source; they are usually repeats but may differ in a detail not shown here. Equal entries are not always repeated.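 Grown in 96-well plates, cells were treated for 48 hours with each compound at five concentrations. Insufficient inhibition: endpoint recorded as highest concentration tested. GI50 is the concentration that inhibits growth by half. TGI is the concentration that stops growth completely.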

Tests used:
Test in all cases: NCI tumour cell line growth inhibition, 48 h
RXF 393 renal = system: RXF 393 renal
SF-539 CNS = system: SF-539 CNS
HCT-15 colon = system: HCT-15 colon
RPMI-8226 leukemia = system: RPMI-8226 leukemia
SNB-75 CNS = system: SNB-75 CNS
MALME-3M melanoma = system: MALME-3M melanoma
OVCAR-8 ovarian = system: OVCAR-8 ovarian
NCI-H226 lung = system: NCI-H226 lung
CAKI-1 renal = system: CAKI-1 renal
SK-MEL-5 melanoma = system: SK-MEL-5 melanoma

Row | Structure (SMILES) | GI50 (RXF 393 renal) | TGI (RXF 393 renal) [µM] | GI50 (SF-539 CNS) [µM] | TGI (SF-539 CNS) [µM] | GI50 (HCT-15 colon) | TGI (HCT-15 colon) [µM] | GI50 (RPMI-8226 leukemia) | TGI (RPMI-8226 leukemia) | GI50 (SNB-75 CNS) [µM] | TGI (SNB-75 CNS) [µM] | GI50 (MALME-3M melanoma) [µM] | TGI (MALME-3M melanoma) [µM] | GI50 (OVCAR-8 ovarian) [µM] | TGI (OVCAR-8 ovarian) [µM] | GI50 (NCI-H226 lung) | TGI (NCI-H226 lung) [µM] | GI50 (CAKI-1 renal) [µM] | TGI (CAKI-1 renal) [µM] | GI50 (SK-MEL-5 melanoma) [µM] | TGI (SK-MEL-5 melanoma) [µM]
1 | COc1ncc(Nc2ncc([C@@H](C)N3CCN(S(C)(=O)=O)CC3)cc2-c2nc(C)nc(N)n2)cc1F | 0.0158 µM | 0.453 | 0.0876 | 1.45 | 0.198 µM | > 100 | 7.13 µM | > 100 µM | < 0.01 | 0.0585 | 0.199 | 10.5 | 2.2 | > 100 | 2.59 µM | > 100 | 0.194 | > 100 | 2.09 | 9.04
2 | COCN1COCN=C1NC#N | – | > 100 | – | > 100 | – | > 100 | – | > 100 µM | – | > 100 | – | > 100 | – | > 100 | – | > 100 | – | > 100 | – | > 100
3 | O=C1N2Cc3c4ccc5c3CN3C(=O)N6Cc7c(ccc(c7CN1C6(c1ccccc1)C23c1ccccc1)OCCOCCNCCOCCO4)OCCOCCNCCOCCO5 (configuration not stated) | – | > 100 | – | > 100 | – | 91.3 | – | 92.2 µM | – | > 100 | – | 59.6 | – | > 100 | – | > 100 | – | > 100 | – | > 100
4 | O=c1[nH]c2ccccc2nc1/C=C(\O)c1ccccc1O | – | > 100 | – | – | – | > 100 | – | > 100 µM | – | > 100 | – | > 100 | – | > 100 | – | > 100 | – | > 100 | – | > 100
5 | O=C(CC1OC(O)C(Cl)=C1Cl)c1cccnc1 (configuration not stated) | – | > 100 | – | 1.41 | – | > 56.8 | – | > 60.8 µM | – | > 100 | – | > 100 | – | > 100 | – | > 100 | – | > 100 | – | > 100
6 | CN(C)CCNC(=O)c1cccc2cc3c(Cl)cccc3nc12 | – | 3.62 | – | 4.03 | – | 6.37 | – | 14.2 µM | – | 8.37 | – | 2.1 | – | > 20.3 | – | 2.73 | – | > 21.8 | – | –
7 | ClC/C=C/COC1CCCCO1 (configuration not stated) | – | > 100 | – | > 100 | – | > 100 | – | > 100 µM | – | > 100 | – | > 100 | – | > 100 | – | > 100 | – | > 100 | – | > 100
8 | CC1(C)CNc2cc(NC(=O)c3cccnc3NCc3ccncc3)ccc21 | 11.7 µM | 64.9 | 7.5 | 58.9 | 22.2 µM | > 87.7 | 21.9 µM | > 100 µM | 1.87 | > 100 | 15.9 | 84.9 | 33.3 | > 100 | 11 µM | 46.1 | 21.1 | > 100 | 16 | 30.8
9 | O=C(/C=C/c1ccccc1F)c1ccc(Cl)c(Cl)c1 | – | 62.4 | – | > 100 | – | > 87 | – | > 75.6 µM | – | 98.5 | – | > 100 | – | > 100 | – | > 100 | – | > 80.2 | – | > 84.1
10 | CC(C)(C)C1CCC2c3c([nH]c4ccccc34)C3C(=O)N(c4ccc(Cl)cc4)C(=O)C3C2C1 (configuration not stated) | 48.5 µM and > 10 µM | > 100 | > 100 | > 100 | 52.3 µM and > 10 µM | > 100 | 27.2 µM and > 10 µM | 77 µM and > 10 µM | > 100 | > 100 | – | > 10 | > 100 | > 100 | 72.8 µM and > 10 µM | > 100 | – | – | > 100 | > 100
11 | O=C1C(c2ccc(Br)cc2)=[N+]([O-])c2ccccc21 | – | 31.4 | – | 34.7 | – | 23.7 | – | > 100 µM | – | 31.4 | – | 32.7 | – | 25.1 | – | 35.3 | – | – | – | 21.6
12 | C[N+](C)(C)CC(=O)N/N=C(/C(=O)Nc1ccc(Br)cc1)C1C(=O)NC(=O)NC1=O | – | > 100 | – | > 100 | – | > 100 | – | > 100 µM | – | > 100 | – | > 100 | – | – | – | > 100 | – | > 100 | – | > 100
13 | CC1=C(/C=C/C(C)=C/C2CC(N(C)C)=CC(=O)O2)C(C)(C)CCC1 (configuration not stated) | – | 31.1 | – | 30.2 | – | – | – | 19.3 µM | – | 32.4 | – | 28.6 | – | 32.3 | – | 25.8 | – | 37.1 | – | 19.6
14 | Nc1nc([Se])c2ncn(C3OC(CO)C(O)C3O)c2n1 (configuration not stated) | > 100 µM | > 100 | 19.3 | > 100 | 7.84 µM | > 100 | – | – | > 100 | > 100 | > 100 | > 100 | 3.86 | > 100 | 9.29 µM | > 100 | 22.5 | > 100 | 25.2 | 89.6
15 | O=C(CSc1nc(-c2ccccc2)c(-c2ccccc2)[nH]1)N/N=C/c1ccc(O)cc1 | – | 61.4 | – | 40.5 | – | – | – | 60.6 µM | – | 52.7 | – | 52.5 | – | 48 | – | 82 | – | – | – | –
